From US9434701B2, “Aminoquinoxaline derivatives for treatment of neurodegenerative diseases” (CENTRE NATIONAL DE LA RECHERCHE SCIENTIFIQUE (CNRS), priority 2011, dated 2016)
Where two headings read alike, the source gives them in different places.

Tests used:
Format in all cases: cell-based
[1] = tested on: dopaminergic neurons (TH+) of rat embryo ventral midbrain culture; experiment: dopaminergic neuron spontaneous degeneration model in culture, TH+ neuron count after 8 days (Schmidt et al. protocol); details: Rattus norvegicus, Neuron, 192 h; compound at 100 nM; 8 days of culture; read-out: TH+ neurons in % of control ± SEM
Description: (§1) Quinoxaline derivatives were tested on a dopaminergic neuron spontaneous degeneration model in culture according to the protocol described in the article by F. Schmidt et al. […] This model consists of culturing rat embryo ventral midbrain. This part of the brain in culture contains a proportion of dopaminergic neurons of 5% of the total neurons; the other neurons are mainly GABAergic. These cultures are also composed of glial cells, i.e., astrocytes, oligodendrocytes and microglia. These cultures are characterized by progressive neuron death.

[2] = tested on: dopaminergic neurons (TH+) of rat embryo ventral midbrain culture; experiment: neuritogenic activity: neurite outgrowth per cell / differentiation of TH+ neurons; details: Rattus norvegicus, Neuron; compound at 100 nM; read-out: Diff in % of control ± SEM
Description: as §1, with “death. […] To assess the neuritogenic activity of compounds according to the invention, neurite outgrowth per cell was quantified using the Neurite Outgrowth software developed by Xplora Nova. At least 60 neurons per condition were photographed and studied.” for “death.”

[3] = tested on: fetal dopaminergic neurons (TH+) in culture; experiment: dopaminergic neuron spontaneous degeneration model, second protocol (Mourlevat et al.), TH+ neuron count after 10 days; details: Rattus norvegicus, 240 h, read-out: TH+ neurons in % of control ± Std. Err.
Description: This second protocol is described in the article by Mourlevat, P. P. Michel et al. Molecular Pharmacology 2003, 64:578-586 (“Prevention of Dopaminergic Neuronal Death by Cyclic AMP in Mixed Neuronal/Glial Mesencephalic Cultures Requires the Repression of Presumptive Astrocytes”). […] Compounds according to the invention were evaluated at 50 μM except compound 4bc which was assessed at 100 μM.

[4] = compound at 50 μM, 10 days of culture, one experiment in triplicate

Row | Structure (SMILES) | activity at 0.1 µM [1] | activity at 0.1 µM [2] | activity at 50 µM [3, 4] | also measured
1 | CCCCc1nc2cc(N)ccc2nc1C [Compound 4bd] | 121% | 102% |  | 
2 | Nc1ccc2ncc(-c3ccccc3)nc2c1 [Compound 4ac] |  |  |  | activity at 50 µM [3]: 189 ± 11%
3 | COc1ccc(-c2nc3cc(N)ccc3nc2-c2ccccc2)cc1 [Compound 4ch] |  |  | 130 ± 10% | 
4 | Cc1nc2ccc(N)c(Br)c2nc1-c1ccccc1 [Compound 7bc] |  |  | 153 ± 12% | 
5 | C#CCNc1ccc2nc(C)c(-c3ccc(F)cc3)nc2c1 [Compound 9bm] |  |  | 166 ± 15% | 
6 | CCCCCCc1nc2ccc(N)cc2nc1CCCC [Compound 4ed] | 115% | 104% |  | 
7 | CCCCc1cnc2ccc(N)cc2n1 [Compound 4ad] | 101% | 118% |  | 
8 | C#CCNc1ccc2nc(C)c(-c3ccccc3)nc2c1 [Compound 9bc] |  |  | 174 ± 15% | 
9 | Cc1nc2ccc(N)c(Cl)c2nc1-c1ccccc1 [Compound 8bc] |  |  | 129 ± 8% | 
